Usually IC50 stands for the point on the concentration scale where inhibition reaches its midpoint. A higher IC50 goes with a need for much substance.

The target of this test is T1, human TLR9 (Homo sapiens, UniProt Q9NR96).
T1 construct: host or cells: HEK-Blue cells
T1 sequence (Q9NR96 26-1032): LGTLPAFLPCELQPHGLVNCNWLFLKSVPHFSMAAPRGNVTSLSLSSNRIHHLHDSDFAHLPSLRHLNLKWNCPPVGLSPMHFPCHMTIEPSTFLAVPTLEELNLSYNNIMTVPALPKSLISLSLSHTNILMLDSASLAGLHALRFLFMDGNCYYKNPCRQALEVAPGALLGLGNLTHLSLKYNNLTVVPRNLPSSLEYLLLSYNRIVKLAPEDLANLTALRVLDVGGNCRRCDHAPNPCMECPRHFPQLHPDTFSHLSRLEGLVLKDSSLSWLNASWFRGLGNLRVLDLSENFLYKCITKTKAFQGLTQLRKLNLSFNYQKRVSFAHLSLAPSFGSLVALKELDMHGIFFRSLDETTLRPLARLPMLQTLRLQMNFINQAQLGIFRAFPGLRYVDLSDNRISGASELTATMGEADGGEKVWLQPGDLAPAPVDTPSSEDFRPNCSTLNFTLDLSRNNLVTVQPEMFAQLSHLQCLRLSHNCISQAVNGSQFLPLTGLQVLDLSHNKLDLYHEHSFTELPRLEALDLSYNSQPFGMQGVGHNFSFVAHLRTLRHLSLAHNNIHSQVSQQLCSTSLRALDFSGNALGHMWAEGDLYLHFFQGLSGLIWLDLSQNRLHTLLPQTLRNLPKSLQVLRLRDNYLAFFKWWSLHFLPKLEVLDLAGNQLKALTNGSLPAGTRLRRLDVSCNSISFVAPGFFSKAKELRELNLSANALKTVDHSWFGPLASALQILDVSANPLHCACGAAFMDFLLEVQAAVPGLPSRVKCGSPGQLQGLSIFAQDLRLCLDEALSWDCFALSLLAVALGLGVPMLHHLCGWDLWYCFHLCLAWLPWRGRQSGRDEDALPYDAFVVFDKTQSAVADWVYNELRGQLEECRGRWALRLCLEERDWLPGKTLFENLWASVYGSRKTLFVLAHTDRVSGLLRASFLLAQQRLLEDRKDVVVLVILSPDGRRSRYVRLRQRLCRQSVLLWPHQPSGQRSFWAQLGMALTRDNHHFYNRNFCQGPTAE
The test can be described thus: TLR9 inhibition reporter assay (HEK-Blue SEAP). The class given is cell-based. The settings on record: HEK-Blue cells overexpressing human TLR9, ODN2006 5 nM, 22 hour incubation. The procedure, abridged: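 Dose–response from 0.05 nM to 50 μM was run in HEK-Blue human TLR7, TLR8 and TLR9 reporter cells. After 30 min at room temperature with compound, ligand was added (TLR7 gardiquimod 7.5 μM; TLR8 R848 15.9 μM; TLR9 ODN2006 5 nM) and SEAP measured next day, at 22 h.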
On the technique in general: In a reporter assay the amount or activity of a reporter protein is the signal.
Consider `CCc1cc2c(cc1-c1cc(OC)c3ncnn3c1)[nH]c(=O)n2[C@@H]1CCCN(C)C1` [Example 174, (R)-6-ethyl-5-(8-methoxy-[1,2,4]triazolo[1,5-a]pyridin-6-yl)-1-(1-methylpiperidin-3-yl)-1,3-dihydro-2H-benzo[d]imidazol-2-one], for which the IC50 is 7.34 µM.

Consider `Cc1cc2c(cc1-c1cc(C)c3ncnn3c1)[nH]c(=O)n2[C@H]1CCCN(C)C1` [Example 11, (S)-6-methyl-5-(8-methyl-[1,2,4]triazolo[1,5-a]pyridin-6-yl)-1-(1-methylpiperidin-3-yl)-1,3-dihydro-2H-benzo[d]imidazol-2-one], for which the IC50 stood at 9.55 µM. Take `Cc1c(-c2cc3[nH]c(=O)n([C@H]4CC[C@@H](NC(C)C)CC4)c3cc2C(C)C)cn2ncnc2c1C` [Example 186, 5-(7,8-dimethyl-[1,2,4]triazolo[1,5-a]pyridin-6-yl)-6-isopropyl-1-((1s,4s)-4-(isopropylamino)cyclohexyl)-1,3-dihydro-2H-benzo[d]imidazol-2-one]: the midpoint of inhibition, the IC50, lay at 5.99 µM.

On to `COCCN1CCC[C@@H](n2c(=O)[nH]c3cc(-c4cc(OC)c5ncnn5c4)c(C(C)C)cc32)C1` [Example 226, (R)-6-isopropyl-5-(8-methoxy-[1,2,4]triazolo[1,5-a]pyridin-6-yl)-1-(1-(2-methoxyethyl)piperidin-3-yl)-1,3-dihydro-2H-benzo[d]imidazol-2-one], for which the 50% inhibitory concentration (IC50) is 14.2 µM. With `COc1cc(-c2cc3[nH]c(=O)n(C4CCC(N5CC(O)(C(F)(F)F)C5)CC4)c3cc2C(C)C)cn2ncnc12` (single isomer, unassigned) [Example 242, 1-(4-(3-hydroxy-3-(trifluoromethyl)azetidin-1-yl)cyclohexyl)-6-isopropyl-5-(8-methoxy-[1,2,4]triazolo[1,5-a]pyridin-6-yl)-1,3-dihydro-2H-benzo[d]imidazol-2-one] the figure was 23.7 µM; with `COc1cc(-c2cc3[nH]c(=O)n([C@H]4CCCN(CCS(C)(=O)=O)C4)c3cc2C(C)C)cn2ncnc12` [Example 222, (S)-6-isopropyl-5-(8-methoxy-[1,2,4]triazolo[1,5-a]pyridin-6-yl)-1-(1-(2-(methylsulfonyl)ethyl)piperidin-3-yl)-1,3-dihydro-2H-benzo[d]imidazol-2-one], greater than 50 µM; with `COc1cc(-c2cc3[nH]c(=O)n(C4CCC(N5CCC6(CC5)COC6)CC4)c3cc2C(C)C)cn2ncnc12` (stereo not drawn) [Example 239, 1-(4-(2-oxa-7-azaspiro[3.5]nonan-7-yl)cyclohexyl)-6-isopropyl-5-(8-methoxy-[1,2,4]triazolo[1,5-a]pyridin-6-yl)-1,3-dihydro-2H-benzo[d]imidazol-2-one], 13 µM. In turn, `CCc1cc2c(cc1-c1cc(OC)c3ncnn3c1)[nH]c(=O)n2[C@@H]1CCCN(C(=O)CN(C)C)C1` [Example 228, (R)-1-(1-(dimethylglycyl)piperidin-3-yl)-6-ethyl-5-(8-methoxy-[1,2,4]triazolo[1,5-a]pyridin-6-yl)-1,3-dihydro-2H-benzo[d]imidazol-2-one] displayed an IC50 of 14.1 µM. `COc1cc(-c2cc3[nH]c(=O)n([C@H]4CC[C@H](N(CC(C)C)CC(C)C)CC4)c3cc2C(C)C)cn2ncnc12` [Example 205, 1-((1r,4r)-4-(diisobutylamino)cyclohexyl)-6-isopropyl-5-(8-methoxy-[1,2,4]triazolo[1,5-a]pyridin-6-yl)-1,3-dihydro-2H-benzo[d]imidazol-2-one]: the 50% inhibitory concentration (IC50) came to 11.6 µM. With `COc1cc(-c2cc3[nH]c(=O)n(C4CCC(N5CCNC(=O)C5)CC4)c3cc2C(C)C)cn2ncnc12` (single isomer, unassigned) [Example 233, 6-isopropyl-5-(8-methoxy-[1,2,4]triazolo[1,5-a]pyridin-6-yl)-1-(4-(3-oxopiperazin-1-yl)cyclohexyl)-1,3-dihydro-2H-benzo[d]imidazol-2-one] the figure was greater than 50 µM.

Take `CCN[C@H]1CC[C@@H](n2c(=O)[nH]c3cc(-c4cn5ncnc5c(C)c4C)c(C(C)C)cc32)CC1` [Example 189, 5-(7,8-dimethyl-[1,2,4]triazolo[1,5-a]pyridin-6-yl)-1-((1s,4s)-4-(ethylamino)cyclohexyl)-6-isopropyl-1,3-dihydro-2H-benzo[d]imidazol-2-one]: the IC50 was greater than 50 µM. The value for `CCc1cc2c(cc1-c1cc(OC)c3ncnn3c1)[nH]c(=O)n2[C@@H]1CCCN(CC(CC)CC)C1` [Example 178, (R)-6-ethyl-1-(1-(2-ethylbutyl)piperidin-3-yl)-5-(8-methoxy-[1,2,4]triazolo[1,5-a]pyridin-6-yl)-1,3-dihydro-2H-benzo[d]imidazol-2-one] was 7.47 µM.

These data come from US12187723B2 (BRISTOL-MYERS SQUIBB COMPANY, priority 2019, dated 2025).
